Test results reported in patent US20070078096A1, “Buffered drug formulations for transdermal electrotransport delivery” (priority 1997, published 2007).
Where two headings read alike, the source gives them in different places. Non-standard residues stand in square brackets, D forms with d. Residues, ends and D or L forms follow the SMILES beside them. Cit = NC(=O)NCCC[C@H](N)C(=O)O; Orn = NCCC[C@H](N)C(=O)O

Test: pKa, pI and charge distribution of buffers
Details: for % salt: fraction of dipeptide carrying a net charge in aqueous solution at pH equal to pI
Description: At the pI, three species coexist.
In an electric field these negative species move in the opposite direction of their positive associated counterions.
Choice of the dipeptide buffer will be on a case-by-case basis depending on the drug compound and the desired level of pH control and conductivity of the formulation.

| Compound | pka A | pI (Table 2) | % salt | pI | species presenting a net charge (salt form) at the pI (at pI) | pka B |
| --- | --- | --- | --- | --- | --- | --- |
| Cn1cncc1C[C@H](NC(=O)CCN)C(=O)O [Anserine] | 2.64 | 8.27 | 10% |  |  |  |
| CC[C@H](C)[C@H](NC(=O)[C@@H](N)Cc1cnc[nH]1)C(=O)O [His-Isoleucine] (H-His-Ile-OH) | 3.13 | 6.95 | 22% |  |  |  |
| NCCC(=O)N[C@@H](Cc1cnc[nH]1)C(=O)O [Carnosine] |  | 8.17 | 8% |  |  |  |
| Gly-Gly-Gly-His (GGGH; printed: Gly-Gly-Gly-His) |  |  |  | 7.5 |  |  |
| O=C(O)[C@H](Cc1c[nH]cn1)NC(=O)[C@@H]1CC(O)CN1 (stereo partly shown) [Hydroxyproline-His] | 2.42 | 7.45 | 25% |  |  |  |
| N[C@@H](Cc1cnc[nH]1)C(=O)N[C@@H](Cc1ccc(O)cc1)C(=O)O [His-Tyr] (H-His-Tyr-OH) |  | 6.95 | 22% |  |  |  |
| C[C@H](N)C(=O)N[C@@H](Cc1cnc[nH]1)C(=O)O [Ala-His] (H-Ala-His-OH) | 2.42 | 7.55 | 22% |  |  |  |
| N[C@@H](Cc1cnc[nH]1)C(=O)N[C@@H](CO)C(=O)O [His-Ser] (H-His-Ser-OH) | 2.65 | 6.95 | 22% |  |  |  |
| NC(N)=NCCC[C@H](NC(=O)[C@@H](N)Cc1ccc(O)cc1)C(=O)O [Tyr-Arg] |  | 8.40 | 17% |  |  |  |
| N[C@@H](Cc1c[nH]c2ccccc12)C(=O)N[C@@H](Cc1cnc[nH]1)C(=O)O [Trp-His] (H-Trp-His-OH) | 2.42 | 7.30 | 32% |  |  |  |
| CSCC[C@H](NC(=O)[C@@H](N)Cc1cnc[nH]1)C(=O)O [His-Met] (H-His-Met-OH) | 2.89 | 6.95 | 22% |  |  |  |
| N[C@@H](Cc1cnc[nH]1)C(=O)N[C@@H](Cc1cnc[nH]1)C(=O)O [His-His] | 2.25 | 7.40 | 32% |  |  |  |
| Gly-Gly-Gly-Gly-His (GGGGH; printed: Gly-Gly-Gly-Gly-His) |  |  |  | 7.55 |  |  |
| NC(N)=NCCC[C@H](N)C(=O)N[C@@H](CC(=O)O)C(=O)O [Arg-Asp] (H-Arg-Asp-OH) |  | 6.08 | 2% |  |  |  |
| N[C@@H](CC(=O)O)C(=O)N[C@@H](Cc1cnc[nH]1)C(=O)O [Asp-His] (H-Asp-His-OH) |  | 4.90 | 3% |  |  |  |
| His-Gly-Gly-Gly (HGGG; printed: His-Gly-Gly-Gly) |  |  |  | 6.9 |  |  |
| NCCC(=O)N[C@@H](Cc1c[nH]cn1)C(=O)O [Beta-Alanylhistidine] |  | 7.70 | 16% |  |  |  |
| NC(=O)C[C@H](N)C(=O)N[C@@H](Cc1cnc[nH]1)C(=O)O [Asn-His] (H-Asn-His-OH) | 2.42 | 7.00 | 44% |  |  |  |
| CSCC[C@H](N)C(=O)N[C@@H](Cc1cnc[nH]1)C(=O)O [Met-His] (H-Met-His-OH) | 2.42 | 7.35 | 30% |  |  |  |
| NC(=O)NCCC[C@H](NC(=O)[C@@H](N)Cc1c[nH]cn1)C(=O)O [His-Citrulline] (H-His-[Cit]-OH) | 3.05 | 6.95 | 22% |  |  |  |
| His-Gly-Gly-Gly-Gly (HGGGG; printed: His-Gly-Gly-Gly-Gly) |  |  |  | 6.0 |  |  |
| CC(C)[C@H](NC(=O)[C@@H](N)Cc1cnc[nH]1)C(=O)O [His-Val] (H-His-Val-OH) | 3.18 | 6.95 | 22% |  |  |  |
| CC(C)C[C@H](NC(=O)[C@@H](N)Cc1cnc[nH]1)C(=O)O [His-Leu] (H-His-Leu-OH) | 3.10 | 6.95 | 22% |  |  |  |
| His-Gly-Gly |  |  |  | 6.9 |  |  |
| O=C(O)C(Cc1cnc[nH]1)NC(=O)C1CCCN1 (stereo not shown) [Pro-His] | 2.42 | 7.90 | 11% |  |  |  |
| N[C@@H](CCC(=O)O)C(=O)N[C@@H](Cc1cnc[nH]1)C(=O)O [Glu-His] (H-Glu-His-OH) |  | 5.20 | 5% | 5.2 | about 5% |  |

| Compound | pka A | pI (Table 2) | % salt | pI | species presenting a net charge (salt form) at the pI (at pI) | pka B |
| --- | --- | --- | --- | --- | --- | --- |
| NC[C@H](O)CC[C@H](N)C(=O)N[C@@H](Cc1c[nH]cn1)C(=O)O [Hydroxylysine-His] | 2.42 | 8.60 | 13% |  |  |  |
| NCCCC[C@H](N)C(=O)N[C@@H](Cc1cnc[nH]1)C(=O)O [Lys-His] | 2.42 | 9.50 | 5% |  |  |  |
| NCC(=O)N[C@@H](CC(=O)O)C(=O)O [Gly-Asp] (H-Gly-Asp-OH) |  | 3.60 | 23% |  |  | 8.60 |
| NC(=O)C[C@H](NC(=O)[C@@H](N)Cc1cnc[nH]1)C(=O)O [His-Asn] (H-His-Asn-OH) | 2.62 | 6.95 | 22% |  |  |  |
| NCCC[C@H](NC(=O)[C@@H](N)Cc1c[nH]cn1)C(=O)O [His-Ornithine] (H-His-[Orn]-OH) | 2.82 | 9.40 | 5% |  |  |  |
| N[C@@H](CC(=O)O)C(=O)N[C@@H](CC(=O)O)C(=O)O [Asp-Asp] (H-Asp-Asp-OH) |  | 3.05 | 43% |  |  | 8.26 |
| N[C@@H](Cc1cnc[nH]1)C(=O)N1CCC[C@H]1C(=O)O [His-Pro] | 2.62 | 6.95 | 22% |  |  |  |
| C[C@@H](O)[C@H](N)C(=O)N[C@@H](Cc1cnc[nH]1)C(=O)O [Thr-His] (H-Thr-His-OH) | 2.42 | 7.15 | 39% |  |  |  |
| NCCCC[C@H](NC(=O)[C@@H](N)Cc1cnc[nH]1)C(=O)O [His-Lys] (H-His-Lys-OH) | 3.05 | 9.40 | 5% |  |  |  |
| NC(=O)CC[C@H](NC(=O)[C@@H](N)Cc1cnc[nH]1)C(=O)O [His-Gln] (H-His-Gln-OH) | 2.93 | 6.95 | 22% |  |  |  |
| N[C@@H](CO)C(=O)N[C@@H](Cc1cnc[nH]1)C(=O)O [Ser-His] (H-Ser-His-OH) | 2.42 | 7.20 | 36% |  |  |  |
| NCC(O)CC[C@H](NC(=O)[C@@H](N)Cc1c[nH]cn1)C(=O)O (stereo partly shown) [His-Hydroxylysine] | 3.05 | 8.75 | 17% |  |  |  |
| NCCC[C@H](N)C(=O)N[C@@H](Cc1c[nH]cn1)C(=O)O [Ornithine-His] | 2.42 | 9.20 | 3% |  |  |  |
| N[C@@H](Cc1ccccc1)C(=O)N[C@@H](Cc1cnc[nH]1)C(=O)O [Phe-His] (H-Phe-His-OH) | 2.42 | 7.20 | 36% |  |  |  |
| N[C@@H](Cc1cnc[nH]1)C(=O)N[C@@H](Cc1ccccc1)C(=O)O [His-Phe] (H-His-Phe-OH) | 2.88 | 6.95 | 22% |  |  |  |
| NC(=O)CC[C@H](N)C(=O)N[C@@H](Cc1cnc[nH]1)C(=O)O [GIn-His] (H-Gln-His-OH) | 2.42 | 7.20 | 36% |  |  |  |
| N[C@@H](Cc1c[nH]cn1)C(=O)N1CC(O)C[C@H]1C(=O)O (stereo partly shown) [His-Hydroxyproline] | 2.42 | 6.95 | 22% |  |  |  |
| Gly-Gly-His |  |  |  | 7.5 |  |  |
| NC(N)=NCCC[C@H](N)C(=O)N[C@@H](CCC(=O)O)C(=O)O [Arg-Glu] (H-Arg-Glu-OH) |  | 6.06 | 3% |  |  |  |
| N[C@@H](Cc1ccc(O)cc1)C(=O)N[C@@H](Cc1cnc[nH]1)C(=O)O [Tyr-His] (H-Tyr-His-OH) |  | 7.15 | 39% |  |  |  |
| NC(=O)NCCC[C@H](N)C(=O)N[C@@H](Cc1c[nH]cn1)C(=O)O [Citrulline-His] (H-[Cit]-His-OH) | 2.42 | 7.30 | 32% |  |  |  |
| CC(C)C[C@H](N)C(=O)N[C@@H](Cc1cnc[nH]1)C(=O)O [Leu-His] (H-Leu-His-OH) | 2.42 | 7.50 | 24% |  |  |  |
| C[C@@H](O)[C@H](NC(=O)[C@@H](N)Cc1cnc[nH]1)C(=O)O [His-Thr] (H-His-Thr-OH) | 2.98 | 6.95 | 22% |  |  |  |
| CC[C@H](C)[C@H](N)C(=O)N[C@@H](Cc1cnc[nH]1)C(=O)O [Isoleucine-His] (H-Ile-His-OH) | 2.42 | 7.44 | 25% |  |  |  |
| NC(N)=NCCC[C@H](NC(=O)[C@@H](N)CCC(=O)O)C(=O)O [Glu-Arg] (H-Glu-Arg-OH) |  | 6.00 | 2% |  |  |  |
| N[C@@H](Cc1cnc[nH]1)C(=O)N[C@@H](Cc1c[nH]c2ccccc12)C(=O)O [His-Trp] | 3.07 | 6.95 | 22% |  |  |  |
